# How the values were obtained:
# [1] = tested on: HUVECs; assay: Flow cytometry of cell associated CAP37 in HUVECs; format: cell-based, human; settings: 10 ng/ml TNFα, permeabilized HUVECs
# Protocol: FIG. 6: Flow cytometric analysis of cell associated CAP37 in HUVECs. HUVECs were incubated 18 h in the absence (unt) or presence of 10 ng/ml TNFα (TNFα), permeabilized and labeled with antisera to human CAP37 or normal serum control. Cells were permeabilized to determine intracellular levels of CAP37. A representative histogram from two independent experiments. The shift due to FITC-staining indicates increased expression of CAP37 in TNFα stimulated cells. Also indicated is a low level of constitutive CAP37 expression (unt).
# HUVECs that were serum starved for 6 h were incubated in the absence or presence of 10 ng/ml TNFα for 10 h and 18 h. Permeabilized and non-permeabilized cells were fixed and stained essentially as described by Gräbner (18). The cells were first blocked with 4% normal donkey serum (JACKSON), then incubated at 4° C. with rabbit anti-human CAP37 antisera (1:300), and followed by biotin-sp-donkey F(ab′)2 anti-rabbit IgG, (JACKSON, 1:200) at 4° C. For detection the cells were incubated with fluorescein (DTAF)-conjugated streptavidin (JACKSON) at 2 μg/ml at 4° C. Cells were analyzed by flow cytometry (FACSCALIBUR, BECTON DICKINSON, San Jose, Calif.). Unstained cells and cells stained with normal rabbit serum were included as controls.
# [2] = tested on: HUVECs; assay: ELISA of released CAP37 in supernatants of HUVEC cultures; format: cell-based, human; settings: supernatants of treated HUVEC cultures
# From the text: Flow cytometry confirmed the studies described in FIG. 5. TNFα treated cells that were permeabilized indicated up to a 5-fold increase of CAP37 expression over untreated cells (FIG. 6). […] To determine whether CAP37 is released from treated endothelial cells, ELISA was used to analyze supernatants from TNFα treated HUVEC cultures. Levels of released CAP37 from treated HUVECs were two-fold over untreated cells (data not shown). It was clear that the amount and proportion of CAP37 released from HUVECs was in general much less than the amount and proportion of CAP37 released from PMN (6). Almost 90% of total CAP37 is released from PMN following phagocytosis (6).
# [3] = tested on: Human neuronal cells (ATCC, HCN-1A); assay: Dot blot of released CAP37 in supernatants of human neuronal cells; format: cell-based; settings: 75 μg/ml, 12 hrs, HCN-1A neurons
# Protocol: FIG. 10: Dot blot analysis of supernatants from human neuronal cells in vitro with anti-CAP37 antiserum. Top row (from left to right) consists of CAP37 standards, at 20, 10, 5 and 2.5 μg/ml. 2nd row consists of doubling dilutions of supes from β-amyloid treated neuronal cultures. Row 3 consists of doubling dilutions of supes from untreated neuronal cultures. Row 4-no antigen/control.
# The expression of CAP37 in neurons was further corroborated using in vitro culture. Human neuronal cells (ATCC, HCN-1A) were cultured according to specifications, transferred to serum-free medium for 6 hr and treated with β-amyloid fragment 1-42 (75 μg/ml), control peptide 40-1 (75 μg/ml), and media for 12 hrs. Supernatants were analyzed by dot blot for presence of released CAP37 (FIG. 10) and cells stained with anti-CAP37 antiserum (FIG. 11A) and normal mouse serum (FIG. 11B) to determine cell-associated CAP37.
Substance,increase of CAP37 expression over untreated cells [1] [fold],levels of released CAP37 over untreated cells [2],concentration of released (secreted) CAP37 in supernatants [3]
TNFα,≤ 5,two-fold,–
β-amyloid fragment 1-42: toxic 42-amino acid beta-amyloid peptide used to induce CAP37 in human neurons,–,–,approximately 2.5 μg/ml

# Reference: patent US9399675B2, “Methods and compositions for diagnosing Alzheimer's disease and age-related macular degeneration” (The Board of Regents of the University of Oklahoma, priority 2007, dated 2016)
